Test results reported in patent publication US20130150376A1, “Novel Sultam Compounds” (PFIZER INC., priority 2010, published 2013).
Counter-ions that a name gives are not always drawn. Like-named read-outs stand apart in the source and are kept apart here.

Biological target: T1, BACE1 enzyme (soluble, truncated BACE enzyme, BACE1deltaTM96His) (Homo sapiens, UniProt P56817)
T1 construct: soluble, truncated BACE enzyme (BACE1deltaTM96His); His; made in house
Test: BACE1 Fluorescent Polarization (FP) Assay
Type: biochemical
Conditions: geometric mean of 2-4 IC50 determinations unless footnoted (^2: 5-6 determinations; ^4: single determination)
Method in brief: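 Soluble truncated His-tagged BACE1 (BACE1deltaTM96His, from CHO-K1 conditioned media; 0.1 nM final) with biotinylated Oregon green peptide substrate (150 nM final), in 100 mM sodium acetate pH 4.5, 0.001% Tween-20. Compounds in ½ log series from 100 μM top; 3 h at 37° C. Stopped with streptavidin; cleavage read as Δ mP fluorescence polarization (Ex485/Em530).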

[1] = 11-point curve, read-out: BACE activity, 11-point curve, IC50
[2] = 8-point curve, read-out: BACE activity, 8-point curve, IC50

T1 sequence (P56817 46-457): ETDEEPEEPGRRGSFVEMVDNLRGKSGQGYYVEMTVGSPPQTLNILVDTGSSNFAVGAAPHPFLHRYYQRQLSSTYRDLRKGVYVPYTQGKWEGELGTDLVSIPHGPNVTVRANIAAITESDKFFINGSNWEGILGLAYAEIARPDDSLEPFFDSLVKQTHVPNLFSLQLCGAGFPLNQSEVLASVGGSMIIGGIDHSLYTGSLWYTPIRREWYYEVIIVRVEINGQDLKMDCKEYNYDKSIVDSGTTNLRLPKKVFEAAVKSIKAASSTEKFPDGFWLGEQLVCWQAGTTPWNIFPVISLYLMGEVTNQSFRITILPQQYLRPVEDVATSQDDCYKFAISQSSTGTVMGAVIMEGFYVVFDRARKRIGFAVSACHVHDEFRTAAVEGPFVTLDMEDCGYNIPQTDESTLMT

Row | SMILES | IC50 [1] [nM] | IC50 [2] [nM]
1 | Cc1ccsc1-c1cc(CN2CC[C@]3(C=CS(=O)(=O)N3c3cccc(F)c3)C[C@@H]2C)ccc1O [Example 5, 4-{[(5R,7S)-1-(3-fluorophenyl)-7-methyl-2,2-dioxido-2-thia-1,8-diazaspiro[4.5]dec-3-en-8-yl]methyl}-2-(3-methyl-2-thienyl)phenol, hydrochloride salt] | – | 0.731
2 | C[C@H]1C[C@@]2(C=CS(=O)(=O)N2c2cccc(F)c2)CCN1Cc1scnc1CC1CCC1 [Example 19, (5R,7S)-8-{[4-(cyclobutylmethyl)-1,3-thiazol-5-yl]methyl}-1-(3-fluorophenyl)-7-methyl-2-thia-1,8-diazaspiro[4.5]dec-3-ene 2,2-dioxide] | – | 310
3 | C[C@H]1C[C@@]2(C=CS(=O)(=O)N2c2cccc(F)c2)CCN1Cc1ncoc1-c1cncs1 [Example 35, (5R,7S)-1-(3-fluorophenyl)-7-methyl-8-{[5-(1,3-thiazol-5-yl}-1,3-oxazol-4-yl]methyl}-2-thia-1,8-diazaspiro[4.5]dec-3-ene 2,2-dioxide] | 3000 | 2180
4 | CCc1ccccc1-c1cc(CN2CC[C@]3(CCS(=O)(=O)N3c3cccc(F)c3)C[C@@H]2C)ccc1O [Example 8, 2′-ethyl-5-{[(5R,7S)-1-(3-fluorophenyl)-7-methyl-2,2-dioxido-2-thia-1,8-diazaspiro[4.5]dec-8-yl]methyl}biphenyl-2-ol] | – | 124
5 | Cc1ccsc1-c1ncsc1CN1CC[C@]2(C=CS(=O)(=O)N2c2cccc(F)c2)C[C@@H]1C [Example 45, (5R,7S)-1-(3-fluorophenyl)-7-methyl-8-{[4-(3-methyl-2-thienyl)-1,3-thiazol-5-yl]methyl}-2-thia-1,8-diazaspiro[4.5]dec-3-ene 2,2-dioxide] | 15300 | 5600
6 | CC(C)Oc1cccc(CN2CC[C@]3(CCS(=O)(=O)N3c3cccc(F)c3)C[C@@H]2C)c1 [Example 28, (5R,7S)-1-(3-fluorophenyl)-8-(3-isopropoxybenzyl)-7-methyl-2-thia-1,8-diazaspiro[4.5]decane 2,2-dioxide] | 2160 | 521
7 | CC(C)Cc1ncoc1CN1CC[C@]2(CC(C)S(=O)(=O)N2c2cccc(F)c2)C[C@@H]1C (mixture of isomers) [Example 2, (5R,7S)-1-(3-Fluorophenyl)-8-[(4-isobutyl-1,3-oxazol-5-yl)methyl]-3,7-dimethyl-2-thia-1,8-diazaspiro[4.5]decane 2,2-dioxide, formate salt] | 4440 | –
8 | C[C@H]1C[C@]2(CCN1Cc1ncoc1-c1cncnc1)CCS(=O)(=O)N2c1cccc(F)c1 [Example 33, (5R,7S)-1-(3-fluorophenyl)-7-methyl-8-[(5-pyrimidin-5-yl-1,3-oxazol-4-yl)methyl]-2-thia-1,8-diazaspiro[4.5]decane 2,2-dioxide, hydrochloride salt] | 3030 | –
9 | CC(C)Oc1cc(CN2CC[C@]3(C=CS(=O)(=O)N3c3cccc(F)c3)C[C@@H]2C)ccc1O [Example 9, 4-{[(5R,7S)-1-(3-ftuorophenyl)-7-methyl-2,2-dioxido-2-thia-1,8-diazaspiro[4.5]dec-3-en-8-yl]methyl}-2-isopropoxyphenol] | 77.9 | 23.5
10 | COc1ccc2[nH]c(CN3CC[C@]4(C=CS(=O)(=O)N4c4cccc(F)c4)C[C@@H]3C)cc2c1 [Example 42, (5R,7S)-1-(3-fluorophenyl)-8-[(5-methoxy-1H-indol-2-yl)methyl]-7-methy1-2-thia-1,8-diazaspiro[4.5]dec-3-ene 2,2-dioxide] | 2220 | 117
11 | C[C@H]1C[C@@]2(C=CS(=O)(=O)N2c2cccc(F)c2)CCN1Cc1ncoc1-c1cncc(F)c1 [Example 40, (5R,7S)-1-(3-fluorophenyl)-8-{[5-(5-fluoropyridin-3-yl)-1,3-oxazol-4-yl]methyl}-7-methyl-2-thia-1,8-diazaspiro[4.5]dec-3-ene 2,2-dioxide, hydrochloride salt] | 2380 | 1380
12 | C[C@H]1C[C@]2(CCN1Cc1ncoc1-c1cccnc1)CCS(=O)(=O)N2c1cccc(F)c1 [Example 32, (5R,7S)-1-(3-fluorophenyl)-7-methyl-8-[(5-pyridin-3-yl-1,3-oxazol-4-yl)methyl]-2-thia-1,8-diazaspiro[4.5]decane 2,2-dioxide, hydrochloride salt] | 4290 | –
13 | C[C@H]1C[C@@]2(C=CS(=O)(=O)N2c2cccc(F)c2)CCN1Cc1scnc1-c1cncc(F)c1 [Example 44, (5R,7S)-1-(3-fluorophenyl)-8-{[4-(5-fluoropyridin-3-yl)-1,3-thiazol-5-yl]methyl}-7-methyl-2-thia-1,8-diazaspiro[4.5]dec-3-ene 2,2-dioxide, hydrochloride salt] | 8460 | 3070

The next lines start with the values.

Row | IC50 [1] [nM] | IC50 [2] [nM] | SMILES
14 | 927 | – | Cc1cccnc1-c1cccc(CN2CC[C@]3(C=CS(=O)(=O)N3c3cccc(F)c3)C[C@@H]2C)c1 [Example 77, (5R,7S)-1-(3-fluorophenyl)-7-methyl-8-[3-(3-methylpyridin-2-yl)benzyl]-2-thia-1,8-diazaspiro[4.5]dec-3-ene 2,2-dioxide, trifluoroacetic acid salt]
15 | 9030 | 5600 | C[C@H]1C[C@@]2(C=CS(=O)(=O)N2c2cccc(F)c2)CCN1Cc1scnc1-c1cccnc1 [Example 48, (5R,7S)-1-(3-fluorophenyl)-7-methyl-8-[(4-pyridin-3-yl-1,3-thiazol-5-yl)methyl]-2-thia-1,8-diazaspiro[4.5]dec-3-ene 2,2-dioxide]
16 | 4190 | – | C[C@H]1C[C@]2(CCN1Cc1ccc(O)c(C3CCC3)c1)CCS(=O)(=O)N2c1ccccn1 [Example 92, 2-cyclobutyl-4-{[(5R,7S)-7-methyl-2,2-dioxido-1-(pyridin-2-yl)-2-thia-1,8-diazaspiro[4.5]dec-8-yl]methyl}phenol]
17 | 2490 | 1290 | C[C@H]1C[C@@]2(C=CS(=O)(=O)N2c2cccc(F)c2)CCN1Cc1ncoc1C1CCOC1 (stereo partly drawn) [Example 71, (5R,7S)-1-(3-fluorophenyl)-7-methyl-8-{[5-(tetrahydrofuran-3-yl)-1,3-oxazol-4-yl]methyl}-2-thia-1,8-diazaspiro[4.5]dec-3-ene 2,2-dioxide]
18 | 5790 | 1770 | CC(C)Oc1cccc(CN2CC[C@]3(C=CS(=O)(=O)N3c3ccc(F)c(F)c3)C[C@@H]2C)c1 [Example 68, (5R,7S)-1-(3,4-difluorophenyl)-8-(3-isopropoxybenzyl)-7-methyl-2-thia-1,8-diazaspiro[4.5]dec-3-ene 2,2-dioxide, hydrochloride salt]
19 | 6530 | – | Cc1ccsc1-c1ocnc1CN1CC[C@]2(CCS(=O)(=O)N2c2cccc(F)c2)C[C@@H]1C [Example 58, (5R,7S)-1-(3-fluorophenyl)-7-methyl-8-{[5-(3-methyl-2-thienyl)-1,3-oxazol-4-yl]methyl}-2-thia-1,8-diazaspiro[4.5]decane 2,2-dioxide, hydrochloride salt]
20 | 115 | 13.8 | Cc1cccnc1-c1cc(CN2CC[C@]3(C=CS(=O)(=O)N3c3cccc(F)c3)C[C@@H]2C)ccc1O [Example 74, 4-{[(5R,7S)-1-(3-fluorophenyl)-7-methyl-2,2-dioxido-2-thia-1,8-diazaspiro[4.5]dec-3-en-8-yl]methyl}-2-(3-methylpyridin-2-yl)phenol]
21 | 20.9 | – | Cc1csnc1-c1cc(CN2CC[C@@]3(C[C@@H]2C)C(=O)CS(=O)(=O)N3c2cccc(F)c2)ccc1O [Example 82, (5R,7S)-1-(3-fluorophenyl)-8-[4-hydroxy-3-(4-methylisothiazol-3-yl)benzyl]-7-methyl-2-thia-1,8-diazaspiro[4.5]decan-4-one 2,2-dioxide]
22 | 25700 | – | CC(C)Oc1cccc(CN2CC[C@@]3(C[C@@H]2C)C(=O)C(C)(C)S(=O)(=O)N3c2cccc(F)c2)c1 [Example 64, (5R,7S)-1-(3-fluorophenyl)-8-(3-isopropoxybenzyl)-3,3,7-trimethyl-2-thia-1,8-diazaspiro[4.5]decan-4-one 2,2-dioxide, hydrochloride salt]
23 | 117 | – | COC1=CS(=O)(=O)N(c2cccc(F)c2)[C@@]12CCN(Cc1ccc(O)c(-c3nscc3C)c1)[C@@H](C)C2 [Example 86, 4-{[(5R,7S)-1-(3-fluorophenyl)-4-methoxy-7-methyl-2,2-dioxido-2-thia-1,8-diazaspiro[4.5]dec-3-en-8-yl]methyl}-2-(4-methylisothiazol-3-yl)phenol, ammonium salt]
24 | 249 | 47.1 | C[C@H]1C[C@]2(CCN1Cc1ccc(O)c(C3CCCO3)c1)CCS(=O)(=O)N2c1cccc(F)c1 (single isomer, unassigned) [Example 47]
25 | 3010 | 866 | C[C@H]1C[C@]2(CCN1Cc1ccc(O)c(C3CCCO3)c1)CCS(=O)(=O)N2c1cccc(F)c1 (single isomer, unassigned) [Example 46]
